Laboratory results reported in US20240327384A1, “SALTS AND SOLID STATE FORMS OF A KIF18A INHIBITOR COMPOUND” (Amgen Inc., priority 2021, published 2024).
Values after ≈ are worked out from the molar mass of the structure shown. Where two headings read alike, the source gives them in different places. Marks after values point to notes of the source that are not given here.

Legend:
[1] = Dynamic vapor sorption (moisture sorption, hygroscopicity); assay type: physicochemical; conditions: for DVS weight gain: by 95% RH
Procedure: Moisture sorption data was collected using a VTI SGA 100 symmetrical vapor sorption analyzer. A sample size of approximately 5 mg to 10 mg was used in a platinum pan. Hygroscopicity was evaluated from 5% RH to 95% RH in increments of 5% RH. Data for adsorption and desorption cycles were collected. […] Dynamic Vapor Sorption (DVS): Moisture sorption data was collected using a Surface Measurement Systems […] instrument. Equilibrium criteria were set at ±0.001% weight change in 10 minutes with a maximum equilibrium time of 360 minutes.

[2] = Solubility and powder dissolution in FaSSGF, FaSSIF, FeSSIF, water (Example 44); assay type: physicochemical; conditions: for Sol (pH), Water (first value pair after FeSSIF): pH 1.14 (HCl Form 1), pH 1.08 (Variable Hydrate Form 2); for Sol (pH), Water (first value pair after FeSSIF) / Sol (pH), Water (second value pair after FeSSIF): head of medium unclear; for Sol (pH), Water (second value pair after FeSSIF): pH 1.58 (HCl Form 1), pH 1.64 (Variable Hydrate Form 2)
Procedure: Solubilities of various forms of the Compound A and the Compound A-HCl Form 1 were measured in Fasted State Simulated Gastric Fluid (FaSSGF), Fasted State Simulated Intestinal Fluid (FaSSIF), fed state simulated intestinal fluid […], and water.

[3] = Intrinsic dissolution rate (IDR) test; assay type: physicochemical
[4] = Polymorph/salt screening: solid form stability, conversion and solubility; assay type: physicochemical
[5] = Dog cross-over PK study; assay type: in vivo
Procedure: A total of 3 male dogs were initially assigned to study. All animals were fasted for at least eight hours prior to dosing and through the first four hours of blood sample collection (food was returned within 30 minutes following the collection of the last blood sample at the 4 hour collection interval, if applicable).
Each animal receiver an oral gavage dose (PO) of the appropriate test article solution containing Compound A as outlined in the following study design table. Oral gavage dosing solutions were continuously stirred throughout dosing. The gavage tubes were rinsed with approximately 10 mL of tap water following dosing (prior to removal of the gavage tube). There was a minimum of 10-day washout period between doses for each phase.

[6] = Solubility and powder dissolution of salts in FaSSIF (Example 46); assay type: physicochemical
Description: All three salts can convert to the free base, but maintain supersaturation in FaSSIF for some time, which indicated a potential good absorption in vivo if used in a pharmaceutical dosage form.

[7] = pKa of ionizable groups; assay type: physicochemical
Description: From high-throughput and manual polymorph screening, the present inventors generated various salts, hydrates, solvates, co-crystals of compound A; and a solid form of the Compound A, including crystalline anhydrous forms, salts, hydrates, solvates, and co-crystals thereof. […] Based on the solid-state properties of the free base forms of Compound A, and their inclinations to form solvates, the present inventors generated various salts, hydrates, solvates, and co-crystals of compound A that may be suitable for drug substance scale up and crystallization for pharmaceutical development.

[8] = Solubility in crystallization solvent 80/20 acetone/water; assay type: physicochemical; conditions: organic solvent or mixture; 80/20 (v/v) acetone/water, crystallization and slurry aging solvent
Procedure: The process was unseeded and crystal growth occurs during the addition of hydrochloric acid to the Compound A solution. The final slurry was aged at ambient temperature for 10 h, then cooled to 10° C. prior to wet milling. Isolation of the milled material occurred at 10° C. followed by washing of the filter cake with 8 volumes of acetone. The material was dried at 40° C. under vacuum.

[9] = target: T1, KIF18A (Homo sapiens, UniProt Q8NI77); experiment: KIF18A ATPase inhibition; assay type: biochemical
T1 sequence (Q8NI77 1-898): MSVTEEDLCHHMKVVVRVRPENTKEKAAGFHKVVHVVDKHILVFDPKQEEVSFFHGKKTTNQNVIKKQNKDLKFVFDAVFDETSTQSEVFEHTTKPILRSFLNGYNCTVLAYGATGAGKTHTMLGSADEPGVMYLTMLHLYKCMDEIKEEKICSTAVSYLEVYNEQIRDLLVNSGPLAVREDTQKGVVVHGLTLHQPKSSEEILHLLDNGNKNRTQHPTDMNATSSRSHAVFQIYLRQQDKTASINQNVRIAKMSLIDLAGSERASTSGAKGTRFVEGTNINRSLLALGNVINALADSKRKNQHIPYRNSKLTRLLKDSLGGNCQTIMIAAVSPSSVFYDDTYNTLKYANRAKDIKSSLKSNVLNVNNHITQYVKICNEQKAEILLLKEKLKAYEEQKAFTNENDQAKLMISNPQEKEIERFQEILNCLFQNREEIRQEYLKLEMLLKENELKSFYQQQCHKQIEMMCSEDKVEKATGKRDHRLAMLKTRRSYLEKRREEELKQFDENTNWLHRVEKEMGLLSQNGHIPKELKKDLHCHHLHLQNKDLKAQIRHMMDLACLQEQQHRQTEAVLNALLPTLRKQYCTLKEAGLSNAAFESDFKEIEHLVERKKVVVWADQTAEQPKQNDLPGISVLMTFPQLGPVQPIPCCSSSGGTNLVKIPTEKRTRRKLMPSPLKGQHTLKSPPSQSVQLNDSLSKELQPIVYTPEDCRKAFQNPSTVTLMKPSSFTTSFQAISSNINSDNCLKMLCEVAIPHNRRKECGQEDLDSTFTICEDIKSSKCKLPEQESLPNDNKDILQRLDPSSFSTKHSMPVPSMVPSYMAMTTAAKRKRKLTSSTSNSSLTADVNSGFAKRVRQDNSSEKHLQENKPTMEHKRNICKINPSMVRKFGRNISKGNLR

[10] = pH 1.6, solubility from powder dissolution measurements
[11] = pH 6.5, solubility from powder dissolution measurements
[12] = pH 5.0, solubility from powder dissolution measurements
[13] = male dogs, fasted, PO 10 mg/kg, cross-over, listed as Amorphous Cmp A, 10 mg/kg
[14] = male dogs, fasted, PO 10 mg/kg, cross-over, listed as Cmp A-Anhydrous Form 3, 10 mg/kg
[15] = male, dog, plasma, po, 10 mg/kg, male dogs, fasted, cross-over, read-out: Tmax
[16] = male, dog, plasma, po, 10 mg/kg, male dogs, fasted, cross-over

Structure (SMILES): Cc1cc(NC(=O)c2ccc(NS(=O)(=O)CCO)cc2N2CCC3(CC2)CC3)nc(N2CCC(F)(F)CC2)n1 [Compound A-Variable Hydrate Form 2]
- DVS weight gain [1]: about 3.4%
- Sol (pH), FaSSGF [2, 10]: 20 μg/mL
- Sol (pH), FaSSIF [2, 11]: 10.6 μg/mL
- Sol (pH), FeSSIF [2, 12]: 144.5(5.0)^ μg/mL
- Sol (pH), Water (first value pair after FeSSIF) [2]: 243 μg/mL
- Sol (pH), Water (second value pair after FeSSIF) [2]: 23 μg/mL
- IDR ([3]; listed as Cmp A-Variable Hydrate Form 2): 0.42 ug/min*cm^2
- solubility, in words [4]: very low solubility

Structure (SMILES): Cc1cc(NC(=O)c2ccc(NS(=O)(=O)CCO)cc2N2CCC3(CC2)CC3)nc(N2CCC(F)(F)CC2)n1 [Amorphous Compound A]
- AUCt [5, 13]: 237 ± 68 µM·h
- Cmax [5, 13]: 6.9 ± 1.3 µM
- Tmax [5, 13]: 6.7 ± 2.3 h
- IDR ([3]; listed as Amorphous Cmp A): 36.2 ug/min*cm^2

Structure (SMILES): Cc1cc(NC(=O)c2ccc(NS(=O)(=O)CCO)cc2N2CCC3(CC2)CC3)nc(N2CCC(F)(F)CC2)n1 [Anhydrous Compound A Form 3]
- DVS weight gain [1]: about 1.5%
- Sol (pH), FaSSGF ([2]; pH 1.6 (end of experiment), solubility from 2 hr time point): 99.3 μg/mL
- Sol (pH), FaSSIF ([2]; pH 6.5 (end of experiment), solubility from 2 hr time point): 87 μg/mL
- Sol (pH), FeSSIF ([2]; pH 5.0 (end of experiment), solubility from 2 hr time point): 352 (5.0)* μg/mL
- Sol (pH), Water ([2]; Water, pH 8.0 (end of experiment), solubility from 2 hr time point): 5.4 (8.0)* μg/mL
- AUCt [5, 14]: 69 ± 6 µM·h
- Cmax [5, 14]: 2.3 ± 0.2 µM
- Tmax [5, 15]: 4.7 ± 1.2 h

Structure (SMILES): Cc1cc(NC(=O)c2ccc(NS(=O)(=O)CCO)cc2N2CCC3(CC2)CC3)nc(N2CCC(F)(F)CC2)n1 [Compound A-TsA Form 4]
- kinetic solubility, dissolution rate and supersaturation in FaSSIF, in words ([6]; listed as Tosylate (A-TsA or A-TSA) Salt Form 4): better than the Mesylate (A-MsA or A-MSA) Salt Form 1
- Sol (pH), FaSSIF ([6]; pH 6.5, listed as Cmp A-TSA Form 4): 160.6 (6.5) μg/mL

Structure (SMILES): Cc1cc(NC(=O)c2ccc(NS(=O)(=O)CCO)cc2N2CCC3(CC2)CC3)nc(N2CCC(F)(F)CC2)n1 [Compound A, 2-(6-azaspiro[2.5]octan-6-yl)-N-[2-(4,4-difluoropiperidin-1-yl)-6-methylpyrimidin-4-yl]-4-[(2-hydroxyethanesulfonyl)amino]benzamide]
- pKa ([7]; read-out: weakly acidic pKa): 7.3
- pKa ([7]; read-out: weakly basic pKa): 3.9
- solubility [8]: ~18 mg/mL (≈ 31.9 mM)
- ATPase activity inhibited (MT-ATPase vs basal ATPase) [9]: inhibits MT-ATPase activity and not basal ATPase activity

Structure (SMILES): Cc1cc(NC(=O)c2ccc(NS(=O)(=O)CCO)cc2N2CCC3(CC2)CC3)nc(N2CCC(F)(F)CC2)n1 [Anhydrous Compound A Form 5]
- DVS observation in words [1]: rehydrated to the Compound A-Variable Hydrate Form 2

Structure (SMILES): Cc1cc(NC(=O)c2ccc(NS(=O)(=O)CCO)cc2N2CCC3(CC2)CC3)nc(N2CCC(F)(F)CC2)n1 [Compound A-MsA Form 1]
- DVS weight gain ([1]; listed as Crystalline Compound A-MsA Form 1): about 1.2%
- DVS weight gain ([1]; listed as crystalline Compound A-MsA Salt Form 1): less than 1.2%
- kinetic solubility, dissolution rate and supersaturation in FaSSIF, in words ([6]; listed as Mesylate (A-MsA or A-MSA) Salt Form 1): better than the HCl Salt Form 1
- Sol (pH), FaSSIF ([6]; pH 6.5, listed as Cmp A-MSA Form 1): 133.0 (6.5) μg/mL

Structure (SMILES): Cc1cc(NC(=O)c2ccc(NS(=O)(=O)CCO)cc2N2CCC3(CC2)CC3)nc(N2CCC(F)(F)CC2)n1 [Compound A-Sulfate Form 1]
- DVS observation in words ([1]; listed as Crystalline Compound A-Sulfate Form 1): deliquesces at 90% RH

Structure (SMILES): Cc1cc(NC(=O)c2ccc(NS(=O)(=O)CCO)cc2N2CCC3(CC2)CC3)nc(N2CCC(F)(F)CC2)n1.Cl [Compound A-HCl Form 1]
- solubility [8]: ~8 mg/mL
- DVS weight gain [1]: less than 0.5%
- powder dissolution compared with other forms, in words [2]: faster dissolution than the Compound A-Variable-Hydrate Form 2, or Compound A-Anhydrous Form 3, but a slower dissolution than the Amorphous Compound A
- Sol (pH), FaSSGF [2, 10]: 6.3 ± 0.5 μg/mL
- Sol (pH), FaSSIF [2, 11]: 62.7 ± 9.0 μg/mL
- Sol (pH), FeSSIF [2, 12]: 437.1 ± 16.3 (5.0)^ μg/mL
- Sol (pH), Water (first value pair after FeSSIF) [2]: 7.9 μg/mL
- Sol (pH), Water (second value pair after FeSSIF) [2]: 13 μg/mL
- exposure compared to Amorphous Compound A, in words ([5]; dog, PO 10 mg/kg): lower exposure than the Amorphous Compound A form
- increase in exposure compared to Compound A-Anhydrous Form 3 ([5]; dog, PO 10 mg/kg): ~2 fold
- AUC(0-t) [5, 16]: 181 ± 79 µM·h
- Cmax [5, 16]: 4.7 ± 1.4 µM
- Tmax [5, 15]: 6 h
- IDR [3]: 2.14 ug/min*cm^2
- Sol (pH), FaSSIF ([6]; pH 6.5): 104.2 (6.5) μg/mL
